Our source for the MIC and IC50 values is ChEMBL document CHEMBL1147597, “Synthesis and biological evaluations of novel benzimidazoles as potential antibacterial agents” (Bioorg Med Chem Lett, 2004).

Test [1] concerns Enterococcus hirae. Put plainly: Minimal inhibitory concentration against gram positive Enterococcus hirae 29212 strain (Range is 1-3 uM). The class given is functional.
Test [2] deals with Streptococcus pneumoniae. Nature of the test: Minimal inhibitory concentration against gram positive Streptococcus pneumoniae 6303 strain (Range is 12-25 uM). The class given is functional.
Test [3] has as its system Staphylococcus aureus. Put plainly: Minimal inhibitory concentration against gram positive Staphylococcus aureus 13709 strain (Range is 6-12 uM). The class given is functional.
The subject of test [4] is Staphylococcus aureus. Nature of the test: Minimal inhibitory concentration against Staphylococcus aureus (Range is 6-12 uM). The class given is functional.
The test system of test [5] is Escherichia coli. Put plainly: Minimal inhibitory concentration against Escherichia coli (Range is 25-50 uM). The class given is functional.
The subject of test [6] is Bacteria. Put plainly: Inhibitory activity against bacteria in the transcription/translation assay. The class given is functional, organism-based.
The subject of test [7] is Klebsiella pneumoniae. Nature of the test: Minimal inhibitory concentration against gram negative Klebsiella pneumoniae 13383 strain (Range is 12-25 uM). The class given is functional.
The test system of test [8] is Streptococcus pyogenes. Nature of the test: Minimal inhibitory concentration against gram positive Streptococcus pyogenes 49399 strain (Range is 6-12 uM). The class given is functional.
For test [9], the system named is Escherichia coli. Put plainly: Minimal inhibitory concentration against gram negative Escherichia coli 25922 strain (Range is 25-50 uM). The class given is functional. The following applies: ATCC25922.
Test [10] deals with Proteus vulgaris. Put plainly: Minimal inhibitory concentration against gram negative Proteus vulgaris 8427 strain. The class given is functional.
Test [11] relates to Pseudomonas aeruginosa. Nature of the test: Minimal inhibitory concentration against gram negative Pseudomonas aeruginosa 25416 strain. The class given is functional.
Test [12] deals with Enterococcus hirae. Nature of the test: Minimal inhibitory concentration against gram positive Enterococcus hirae 29212 strain (Range is 25-50 uM). The class given is functional.
Test [13] concerns Pseudomonas aeruginosa. Put plainly: Minimal inhibitory concentration against gram negative Pseudomonas aeruginosa 25416 strain (Range is 50-100 uM). The class given is functional.
Test [14] relates to Staphylococcus aureus. Put plainly: Minimal inhibitory concentration against Staphylococcus aureus (Range is 12-50 uM). The class given is functional.
In test [15] the test system is Proteus vulgaris. Nature of the test: Minimal inhibitory concentration against gram negative Proteus vulgaris 8427 strain (Range is 25-50 uM). The class given is functional.
For test [16], the system named is Klebsiella pneumoniae. Put plainly: Minimal inhibitory concentration against gram negative Klebsiella pneumoniae 13383 strain (Range is 25-50 uM). The class given is functional.
The subject of test [17] is Streptococcus pyogenes. Put plainly: Minimal inhibitory concentration against gram positive Streptococcus pyogenes 49399 strain (Range is 25-50 uM). The class given is functional.
The subject of test [18] is Escherichia coli. Put plainly: Minimal inhibitory concentration against gram negative Escherichia coli 25922 strain (Range is 12-25 uM). The class given is functional. As to conditions: ATCC25922.
For test [19], the system named is Pseudomonas aeruginosa. Put plainly: Minimal inhibitory concentration against gram negative Pseudomonas aeruginosa 25416 strain (Range is 25-50 uM). The class given is functional.
Test [20] concerns Enterococcus hirae. Put plainly: Minimal inhibitory concentration against gram positive Enterococcus hirae 29212 strain (Range is 3-6 uM). The class given is functional.
The subject of test [21] is Klebsiella pneumoniae. Nature of the test: Minimal inhibitory concentration against gram negative Klebsiella pneumoniae 13383 strain (Range is 6-12 uM). The class given is functional.
In test [22] the test system is Escherichia coli. Put plainly: Minimal inhibitory concentration against Escherichia coli (Range is 12-25 uM). The class given is functional.
Test [23] has as its system Pseudomonas aeruginosa. Put plainly: Minimal inhibitory concentration against gram negative Pseudomonas aeruginosa 25416 strain (Range is 12-25 uM). The class given is functional.
For test [24], the system named is Streptococcus pneumoniae. Put plainly: Minimal inhibitory concentration against gram positive Streptococcus pneumoniae 6303 strain (Range is 6-12 uM). The class given is functional.
For test [25], the system named is Streptococcus pyogenes. Put plainly: Minimal inhibitory concentration against gram positive Streptococcus pyogenes 49399 strain (Range is 3-6 uM). The class given is functional.
Test [26] has as its system Escherichia coli. Nature of the test: Minimal inhibitory concentration against gram negative Escherichia coli 25922 strain (Range is 6-12 uM). The following applies: ATCC25922. The class given is functional.
For test [27], the system named is Staphylococcus aureus. Put plainly: Minimal inhibitory concentration against Staphylococcus aureus (Range is 3-6 uM). The class given is functional.
In test [28] the test system is Escherichia coli. Nature of the test: Minimal inhibitory concentration against Escherichia coli (Range is 6-12 uM). The class given is functional.
Test [29] concerns Staphylococcus aureus. Nature of the test: Minimal inhibitory concentration against gram positive Staphylococcus aureus 13709 strain (Range is 3-6 uM). The class given is functional.
Test [30] concerns Proteus vulgaris. Put plainly: Minimal inhibitory concentration against gram negative Proteus vulgaris 8427 strain (Range is 12-25 uM). The class given is functional.
Test [31] has as its system Escherichia coli. Put plainly: Minimal inhibitory concentration against gram negative Escherichia coli 25922 strain. The class given is functional. The following applies: ATCC25922.
Test [32] concerns Escherichia coli. Put plainly: Minimal inhibitory concentration against Escherichia coli. The class given is functional.
For test [33], the system named is Klebsiella pneumoniae. Put plainly: Minimal inhibitory concentration against gram negative Klebsiella pneumoniae 13383 strain (Range is 50-100 uM). The class given is functional.
The test system of test [34] is Staphylococcus aureus. Put plainly: Minimal inhibitory concentration against Staphylococcus aureus (Range is 12-25 uM). The class given is functional.
Test [35] relates to Enterococcus hirae. Nature of the test: Minimal inhibitory concentration against gram positive Enterococcus hirae 29212 strain (Range is 0.75-1.5 uM). The class given is functional.
Test [36] deals with Escherichia coli. Nature of the test: Minimal inhibitory concentration against gram negative Escherichia coli 25922 strain (Range is 12-26 uM). The class given is functional. The following applies: ATCC25922.
Test [37] has as its system Pseudomonas aeruginosa. Nature of the test: Minimal inhibitory concentration against gram negative Pseudomonas aeruginosa 25416 strain (Range is 6-12 uM). The class given is functional.
The subject of test [38] is Staphylococcus aureus. Nature of the test: Minimal inhibitory concentration against gram positive Staphylococcus aureus 13709 strain (Range is 3-7 uM). The class given is functional.
For test [39], the system named is Staphylococcus aureus. Nature of the test: Minimal inhibitory concentration against Staphylococcus aureus (Range is 1-3 uM). The class given is functional.
Test [40] has as its system Escherichia coli. Nature of the test: Minimal inhibitory concentration against Escherichia coli (Range is 3-6 uM). The class given is functional.

A word on the MIC: it is the lowest concentration that inhibits growth of the organism. The low end stands for greater potency, the high end for weaker potency. What is called IC50 is the point on the concentration scale where inhibition reaches its midpoint. Low values mean greater potency, high ones weaker potency.

Converted amounts (≈) assume the structure as drawn. A value given as a limit tells only on which side of the number the result lay.

For `COc1cc(NC(=O)NNC(=O)Cn2c(C3CCNCC3)nc3cc(Cl)c(Cl)cc32)cc(OC)c1`, the MIC in test [1] stood at 3 µM (≈ 1.56 µg/mL); in test [2] it was 25 µM (≈ 13 µg/mL); in [3] it was 12 µM (≈ 6.26 µg/mL); in [4], 12 µM (≈ 6.26 µg/mL); in test [5], 50 µM (≈ 26.1 µg/mL); in test [7] it was 25 µM (≈ 13 µg/mL). In addition, the MIC in [8] was 12 µM (≈ 6.26 µg/mL); in [9], 50 µM (≈ 26.1 µg/mL); in test [10], greater than 100 µM; in test [11] it was greater than 100 µM. In addition, in test [6], the IC50 was greater than 100 µM.

In the case of `O=C1c2ccccc2C(=O)N1CCCCCn1c(C2CCNCC2)nc2cc(Cl)c(Cl)cc21`, the MIC in test [2] is 25 µM (≈ 12.1 µg/mL); in test [3], 12 µM (≈ 5.82 µg/mL); in test [5] it was 50 µM (≈ 24.3 µg/mL); in test [12] it was 50 µM (≈ 24.3 µg/mL); in [13], 100 µM (≈ 48.5 µg/mL); in [14], 50 µM (≈ 24.3 µg/mL). The MIC in [15], in test [16], in test [17] and in [9] was 50 µM (≈ 24.3 µg/mL) throughout. In addition, in test [6], the IC50 came to 25 µM.

In the case of `O=C(Cn1c(C2CCNCC2)nc2cc(Cl)c(Cl)cc21)NNC(=O)Nc1ccc2ccccc2c1`, the MIC in test [18] was 25 µM (≈ 12.8 µg/mL); in test [19], 50 µM (≈ 25.6 µg/mL); in test [2], 25 µM (≈ 12.8 µg/mL); in [3] it was 12 µM (≈ 6.14 µg/mL); in [4], 12 µM (≈ 6.14 µg/mL); in test [20] it was 6 µM (≈ 3.07 µg/mL). Also, the MIC in test [21] is 12 µM (≈ 6.14 µg/mL); in [15], 50 µM (≈ 25.6 µg/mL); in [8], 12 µM (≈ 6.14 µg/mL); in test [22], 25 µM (≈ 12.8 µg/mL). The compound also gave an IC50 in test [6] greater than 100 µM.

For the compound `Clc1cc2nc(C3CCNCC3)n(Cc3ccc(Cn4c(C5CCNCC5)nc5cc(Cl)c(Cl)cc54)cc3)c2cc1Cl`, the MIC in test [23] came out at 25 µM (≈ 16.1 µg/mL); in test [24], 12 µM (≈ 7.71 µg/mL); in test [1], 3 µM (≈ 1.93 µg/mL); in test [25], 6 µM (≈ 3.85 µg/mL); in test [26] it was 12 µM (≈ 7.71 µg/mL); in [21] it was 12 µM (≈ 7.71 µg/mL). Further, the MIC amounted to 6 µM (≈ 3.85 µg/mL) in [27], 12 µM (≈ 7.71 µg/mL) in [28] and 6 µM (≈ 3.85 µg/mL) in test [29]. Moreover, the IC50 in test [6] was greater than 100 µM.

For the compound `O=C(Cn1c(C2CCNCC2)nc2cc(Cl)c(Cl)cc21)NNC(=O)NC12C[C@H]3C[C@@H](C1)C[C@@H](C2)C3`, the MIC worked out at 25 µM (≈ 13 µg/mL) in test [18]; 25 µM (≈ 13 µg/mL) in test [2]; 12 µM (≈ 6.23 µg/mL) in test [3]; 12 µM (≈ 6.23 µg/mL) in test [4]; 6 µM (≈ 3.12 µg/mL) in [20]; 50 µM (≈ 26 µg/mL) in [16]. For the same compound, the MIC in [30] was 25 µM (≈ 13 µg/mL); in test [8], 12 µM (≈ 6.23 µg/mL); in [11] it was greater than 100 µM; in test [22], 25 µM (≈ 13 µg/mL). Moreover, the IC50 in test [6] is greater than 100 µM.

With `O=C1C=CC(=O)N1CCCCCn1c(C2CCNCC2)nc2cc(Cl)c(Cl)cc21`, the MIC is 12 µM (≈ 5.22 µg/mL) in test [24]; 12 µM (≈ 5.22 µg/mL) in test [3]; 12 µM (≈ 5.22 µg/mL) in test [4]; 50 µM (≈ 21.8 µg/mL) in [12]; 50 µM (≈ 21.8 µg/mL) in [17]; greater than 100 µM in test [31]. Moreover, the MIC in test [10] is greater than 100 µM; in [11] it was greater than 100 µM; in [32], greater than 100 µM; in [33], 100 µM (≈ 43.5 µg/mL). The compound further returned an IC50 in test [6] greater than 100 µM.

With `Clc1cc2nc(C3CCNCC3)n(CCCCCn3c(C4CCNCC4)nc4cc(Cl)c(Cl)cc43)c2cc1Cl`, the MIC in [34] stood at 25 µM (≈ 15.2 µg/mL); in test [24], 12 µM (≈ 7.3 µg/mL); in [35], 1.5 µM (≈ 0.913 µg/mL); in [15], 50 µM (≈ 30.4 µg/mL); in [16], 50 µM (≈ 30.4 µg/mL); in test [17], 50 µM (≈ 30.4 µg/mL). Moreover, the MIC was 26 µM (≈ 15.8 µg/mL) in test [36], 12 µM (≈ 7.3 µg/mL) in test [37], 25 µM (≈ 15.2 µg/mL) in test [22] and 7 µM (≈ 4.26 µg/mL) in test [38]. The same compound registered an IC50 in test [6] of 35 µM.

On to `NC[C@@H]1O[C@H](O[C@H]2[C@@H](O)[C@H](O[C@@H]3[C@@H](O)[C@H](N)C[C@H](N)[C@H]3O[C@H]3O[C@H](CO)[C@@H](O)[C@H](O)[C@H]3N)O[C@@H]2CO)[C@H](N)[C@@H](O)[C@@H]1O` [PAROMOMYCIN], for which the MIC in test [39] was determined as 3 µM (≈ 1.85 µg/mL); in test [40], 6 µM (≈ 3.69 µg/mL).
